Earlier results, collected in patent US20140350454A1, “IRRADIATION APPARATUS” (Photocure ASA, priority 2011, published 2014).
Read-outs that look alike come from different tables or passages of the source.

Key:
[1] = system: VIN; details: VIN patients, topical 5-ALA 20% w/w in Unguentum Merck, 4 hours incubation, 630 nm non-laser light
[2] = system: lesions of VIN 1-3; details: 25 patients, 111 lesions of VIN 1-3; 10 ml 5-ALA solution 20% w/w in saline, 4-5 hours under occlusion; 635 nm laser, 100 J/cm^2, 150 mW/cm^2; repeated PDT
[3] = system: VIN; details: bioadhesive patch 38 mg/cm^2 5-ALA in dry form, in situ 4-6 hours; 630 nm non-laser lamp, 20-30 min, 100 J/cm^2; repeated PDT

NCC(=O)CCC(=O)O [5-ALA, 5-aminolevulinic acid]
response rate ([1]; light dose 50 J/cm^2): unacceptably low
clearance rate ([1]; light dose 100 J/cm^2): 40-60%
complete response (of the patients) [2]: 52%
clearance rate [3]: 52%
